Data taken from PMC8391104, “Molecular mechanism of Mad1 kinetochore targeting by phosphorylated Bub1” (EMBO Reports, 2021).
Like-named read-outs stand apart in the source and are kept apart here. Where a SMILES comes first, the peptide text is derived from it. [ ]: non-standard residue; d: D form. pT = C[C@@H](OP(=O)(O)O)[C@H](N)C(=O)O

Tests used:
Peptide solubility = assay type: physicochemical; conditions: 20 mM Hepes, pH 7.5, 100 mM NaCl, 1 mM TCEP, without DMSO
Procedure: Our ITC and sedimentation equilibrium experiments to measure the stoichiometry of the Mad1^CTD‐Bub1^CD1 interaction were performed with concentrations of Mad1 at 100 µM or lower, and titrating Bub1 until a twofold‐fourfold molar excess was obtained. However, our ^31P NMR experiments were conducted with around 0.25 to 0.5 mM of each, and still only one binding event was detected. […] DMSO interfered with ITC enthalpy changes and the NMR signal from DMSO obscured the protein peaks. In contrast, our Mad1^CTD‐Bub1^CD1 crystal structure was obtained through co‐crystallization of Mad1^CTD at a final concentration of 0.35 mM and Bub1^CD1 at 2.5 mM in 5% DMSO. The use of millimolar concentrations of peptide, and the presence of DMSO and isopropanol, required for Mad1^CTD‐Bub1^CD1 crystallization, may explain the association of a second peptide in the crystallized complex. […]
which are affected are already mapped out in Fig 5B, and this can be tracked across Bub1CD1 […]
We thank the reviewer for their positive and constructive comments.
1) On page 2, the first line of the third paragraph, Msp1 should be Mps1.
Response: Thank you, we have corrected this error.
2) Please provide a figure to show the omit map (2Fo−Fc map) for the BUB1 CD1 peptide.
Response: We have created a 2Fo-Fc omit map and included it in Fig EV2D and updated the figure legend accordingly. […]
2) p. 5, near bottom. The authors state that the singly phosphorylated Bub1 peptide (on Thr-461) is less soluble than the double phosphorylated peptide (also phosphorylated on Ser-459), which may explain previous reports that P-Ser-459 contributes to binding Mad1-CTD. It would be helpful if the authors could quantify this reduced solubility.
Response: We realise that our comment on the reduced solubility of the singly phosphorylated pT461 peptide is likely confusing, so we have removed this comment.
In terms of quantifying the reduced solubility, we observed an approximately 2-fold reduction of the solubility of the singly phosphorylated peptide. […]

Mad1^CTD = conditions: ref Ji et al, 2017b, Zhang et al, cited from earlier work
Description: Formation of the Bub1‐Mad1 complex at kinetochores is dependent on phosphorylation of Bub1, a targeting mechanism conserved from yeast to humans (Heinrich et al, [2014]; London & Biggins, [2014a]; Silió et al, [2015]). In S. cerevisiae, phosphorylation of Bub1 at Thr453 and Thr455 by Mps1 promotes an interaction with Mad1^CTD, with pThr455 alone being sufficient for this interaction (London & Biggins, [2014a]; Ji et al, [2017b]). […] This is explained by our structure because a bulky phosphate at Thr464 would clash with the Bub1^CD1 binding interface of Mad1. Therefore, phosphorylation at Thr464 could provide a means to negatively regulate the Bub1‐Mad1 interaction in response to checkpoint signals ... || (+ 1 further places)

[1] = molecular target: T1, human Mad1^CTD (WT) homodimer (Homo sapiens, UniProt Q9Y6D9); experiment: ITC of Bub1^CD1 peptides binding to wild-type Mad1^CTD; conditions: N‐terminal tryptophan peptide
T1 construct: human Mad1^CTD homodimer (residues 597–718); double Strep His6-tag with TEV site (N, cleaved yes); made in house; host or cells: E. coli Rosetta 2 (DE3)
T1 sequence (Q9Y6D9 597-718): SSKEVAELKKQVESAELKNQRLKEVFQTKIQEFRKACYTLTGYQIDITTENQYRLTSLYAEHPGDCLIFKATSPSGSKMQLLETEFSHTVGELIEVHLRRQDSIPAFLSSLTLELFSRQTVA
Description: The coding region of Mad1^597–719 was cloned by USER® (NEB) into a modified pRSFDuet‐1 vector (71341‐3, Sigma‐Aldrich) with an N‐terminal double Strep His6‐tag, followed by a tobacco etch virus (TEV) protease cleavage site (Demple & Linn, [1982]; Bitinaite et al, [1992]). Mad1 mutants were generated using the QuikChange™ Lightning Site‐Directed Mutagenesis Kit (Agilent), developed by Stratagene Inc. (La Jolla, CA) (Nøhr & Kristiansen, [2003]). Mad1 constructs were transformed into Rosetta™ 2 (DE3) Singles™ Competent Cells (71400, Novagen) for expression. Expression was induced with 0.5 mM IPTG and grown overnight at 18°C. Cells were lysed in 25 mM HEPES pH 8.1, 250 mM NaCl, 2 mM DTT, 5% glycerol, 2 mM EDTA supplemented with lysozyme, and Complete™ EDTA‐free protease inhibitors (Roche). Proteins were purified over a Strep‐Tactin Superflow Plus column (QIAGEN) and cleaved with TEV protease overnight at 4°C. The cleaved Mad1^CTD was then diluted to 50 mM NaCl, purified over an anion exchange (Resource Q, GE Healthcare) column, followed by size exclusion chromatography using a Superdex 75 Increase column (GE Healthcare). Mad1^CTD was concentrated to 35 mg/ml in a buffer of 20 mM HEPES pH 7.5, 100 mM NaCl and 1 mM TCEP.
Bub1^CD1 peptides were ordered from Designer Bioscience UK, at 95% purity. The full peptide sequence used in this study was (W)KVQP{pS}P{pT}VHTKEALGFIMNMFQAPTS. (W) = peptide with an additional N‐terminal tryptophan was used to confirm peptide concentration in stoichiometry studies.
Isothermal titration calorimetry (ITC) was performed using an Auto‐iTC200 instrument (Malvern Instruments, Malvern, UK) at 20°C. Mad1^CTD and Bub1^CD1 peptide mutants were dialysed into 20 mM HEPES pH 7.5, 100 mM NaCl, 1 mM TCEP. For each titration between 30–100 µM of Mad1 was pipetted into the calorimeter cell. The Bub1^CD1 peptides at 0.3–1.5 mM were titrated into the cell consisting of one 0.5 µl injection followed by 19 injections of 2 µl each. The changes in the heat released were integrated over the entire titration and fitted to a single‐site binding model using the MicroCal PEAQ‐ITC Analysis Software 1.0.0.1258 (Malvern Instruments). Titrations were performed in triplicate. Calculations for stoichiometry were based on the molar concentrations of dimeric Mad1^CTD.

Mad1CTD = experiment: Mad1-Cdc20 interaction; assay type: binding
Description: Response: Thank you for pointing out this paper. We have now mentioned this observation in the text: bottom of page 10.
2-1) Have the authors analyzed if Mad1 can bind directly to Cdc20 and is this influenced by Bub1 CD1 as proposed in Ji et al 2017? This would have important implications for understanding SAC signaling also in light of the two recent Science papers on this topic.
Response: We have not carefully analysed the Mad1-Cdc20 interaction. We have replicated […]
blotting) to Mad1CTD (data not shown).
2-2) The authors are focused on the model that Bub1 positions Cdc20 close to Mad1 but this model is not consistently supported by the literature (see for example: Di Fiore Dev Cell 2016 where a Cdc20 mutant unable to bind ABBA motifs still loads Mad2 and Zhang et al 2019, PMID: 30782962 where Bub1 without an ABBA motif still supports a robust […]
Response: Thank you for pointing this out. We agree that we predominately focused on the model that the Bub1 ABBA/KEN motifs position Cdc20 close to Mad1, and that we should have stated more clearly that this model is still debated.
Two changes to the text were made:
1) In the Introduction (page 2) where we had previously already discussed how this model is debated, we added the (Zhang et al, 2019) reference. […]
4) In figure 5A could the authors indicates the peaks they want the readers to focus on that are also discussed in the text. […]

In the case of `CC[C@H](C)[C@H](NC(=O)[C@H](Cc1ccccc1)NC(=O)CNC(=O)[C@H](CC(C)C)NC(=O)[C@H](C)NC(=O)[C@H](CCC(=O)O)NC(=O)[C@H](CCCCN)NC(=O)[C@@H](NC(=O)[C@H](Cc1c[nH]cn1)NC(=O)[C@@H](NC(=O)[C@@H](NC(=O)[C@@H]1CCCN1C(=O)[C@H](CO)NC(=O)[C@@H]1CCCN1C(=O)[C@H](CCC(N)=O)NC(=O)[C@@H](NC(=O)[C@@H](N)CCCCN)C(C)C)[C@@H](C)OP(=O)(O)O)C(C)C)[C@@H](C)O)C(=O)N[C@@H](CCSC)C(=O)N[C@@H](CC(N)=O)C(=O)N[C@@H](CCSC)C(=O)N[C@@H](Cc1ccccc1)C(=O)N[C@@H](CCC(N)=O)C(=O)N[C@@H](C)C(=O)N1CCC[C@H]1C(=O)N[C@H](C(=O)N[C@@H](CO)C(=O)O)[C@@H](C)O` [SpT* CD1] (H-KVQPSP[pT]VHTKEALGFIMNMFQAPTS-OH; N-terminus and C-terminus assumed), the “reduction of solubility versus doubly phosphorylated peptide” value (Peptide solubility) is given as “approximately 2 fold”, the solubility (Peptide solubility) is given as “about 0.7 mM” and the “Mad1 binding reported previously, in words” value (Mad1^CTD; listed as pThr461) is given as “sufficient to promote a strong Bub1‐Mad1 interaction”. For the same compound, the “Mad1 binding reported previously, in words” value (Mad1^CTD; listed as singly phosphorylated pThr461 peptide) was “significant reduction in binding”.

With “(W)KVQP{pS}P{pT}VHTKEALGFIMNMFQAPTS [peptide with an additional N‐terminal tryptophan was used to confirm peptide concentration in stoichiometry studies]” the “KD and stoichiometry compared with peptide lacking N-terminal Trp” value [1] was “The same KD and stoichiometry”.

For “phosphorylated Bub1-Bub3: phosphorylated Bub1-Bub3 complex”, the “effect on the Mad1-Cdc20 interaction, in words” value (Mad1CTD) was “does not detectably enhance the Mad1-Cdc20 interaction”.
